# Earlier results in patent publication US11807631B2, “Herboxidiene derivatives and uses thereof” (Purdue Research Foundation, priority 2017, dated 2023).
# System: human normal fibroblast cell line, W1-38
compound,measurement,value
COC(C(C)O)C(C)C1OC1(C)CC(C)/C=C/C=C(\C)C1OC(CC(=O)O)CCC1C (stereo not shown) [Herboxidiene/GEX1A],cell cycle arrest,induces both G1 and G2/M cell cycle arrest
